Measurements as given in article PMC7503225, “Repositioning Dequalinium as Potent Muscarinic Allosteric Ligand by Combining Virtual Screening Campaigns and Experimental Binding Assays” (International Journal of Molecular Sciences, 2020).
pKi: −log10 of the molar value. Like-named read-outs stand apart in the source and are kept apart here.

How the values were obtained:
hM5 muscarinic receptor = target: T1, hM5 muscarinic receptor (Homo sapiens, UniProt P08912); assay: Equilibrium inhibition binding with [3H]-NMS, CHO cell membranes; conditions: for Ki: [3H]-NMS 0.2 nM, CHO membranes, mean ± SEM of 3-4 experiments, read-out: pKi hM5 (converted)
T1 construct: expressed in transfected cells; host or cells: CHO cells, stably transfected; membrane fractions
T1 sequence (P08912 1-532): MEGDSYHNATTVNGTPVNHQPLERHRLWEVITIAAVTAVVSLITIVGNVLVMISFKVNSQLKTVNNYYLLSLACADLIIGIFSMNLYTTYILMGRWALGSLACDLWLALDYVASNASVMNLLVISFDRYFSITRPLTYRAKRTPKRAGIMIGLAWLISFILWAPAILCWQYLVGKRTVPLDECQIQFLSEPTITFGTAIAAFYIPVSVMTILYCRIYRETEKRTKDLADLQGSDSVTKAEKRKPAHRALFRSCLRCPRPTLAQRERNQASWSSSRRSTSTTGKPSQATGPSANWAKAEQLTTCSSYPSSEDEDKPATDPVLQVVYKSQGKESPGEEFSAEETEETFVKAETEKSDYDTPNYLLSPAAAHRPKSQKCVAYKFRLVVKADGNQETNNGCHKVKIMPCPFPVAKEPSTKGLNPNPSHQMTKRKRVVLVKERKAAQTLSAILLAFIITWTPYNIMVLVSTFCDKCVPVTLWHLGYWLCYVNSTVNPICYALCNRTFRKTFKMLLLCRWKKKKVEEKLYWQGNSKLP
Experimental: (§1) All tested compounds were purchased from Merck KGaA (Darmstadt, Germany). The radioligand binding experiments were performed with membranes from Chinese Hamster Ovary (CHO) cells stably transfected with the five cloned human muscarinic receptor subtypes (hM1-5). Membrane fractions were prepared according to the protocol, which have been previously described; membranes were stored at −80 °C until use. Nonspecific binding was defined by the radioactivity bound in the presence of 10 µM atropine.
(§2) Aliquots of membranes (25–70 µg/mL) were added and incubated for 2 h at room temperature, filtered through UniFilter GF/B plates (PerkinElmer Life and Analytical Science, Monza, Italy) using a FilterMate cell harvester (PerkinElmer Life and Analytical Science, Monza, Italy). The filters were washed several times with ice-cold MilliQ water. Then, the plates were counted in a β-counter (TopCount NXT microplate scintillation counter, PerkinElmer Life and Analytical Science, Monza, Italy).
(§3) Data points from radioligand inhibition binding curve were fitted to models using nonlinear regression equation to determine inhibitor potency (IC50) estimates, which were then converted to Ki values as appropriate.
(§4) All the results are expressed as means ± SEM obtained from 3-4 independent experiments each one performed in duplicate.

hM4 muscarinic receptor = target: T2, hM4 muscarinic receptor (Homo sapiens, UniProt P08173); assay: as above; conditions: for Ki: [3H]-NMS 0.2 nM, CHO membranes, mean ± SEM of 3-4 experiments, read-out: pKi hM4 (converted)
T2 construct: expressed in transfected cells; host or cells: CHO cells, stably transfected; membrane fractions
T2 sequence (P08173 1-479): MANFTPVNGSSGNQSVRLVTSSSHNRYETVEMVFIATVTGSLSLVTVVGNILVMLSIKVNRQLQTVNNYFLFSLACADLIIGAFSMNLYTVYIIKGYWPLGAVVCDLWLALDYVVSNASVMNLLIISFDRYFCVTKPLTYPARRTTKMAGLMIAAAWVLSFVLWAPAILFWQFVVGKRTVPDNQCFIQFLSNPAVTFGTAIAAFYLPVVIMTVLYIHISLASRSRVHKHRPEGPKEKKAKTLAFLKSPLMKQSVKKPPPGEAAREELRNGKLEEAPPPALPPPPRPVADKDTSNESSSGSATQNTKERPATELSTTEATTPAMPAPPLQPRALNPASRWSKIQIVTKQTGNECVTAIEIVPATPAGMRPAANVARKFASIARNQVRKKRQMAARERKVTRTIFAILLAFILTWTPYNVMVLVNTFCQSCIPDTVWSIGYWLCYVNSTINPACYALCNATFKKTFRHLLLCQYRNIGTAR
Experimental: as §1, §2, §3, §4

[1] = ref DrugBank [16]; cited from earlier work
hM3 muscarinic receptor = target: T3, hM3 muscarinic receptor (Homo sapiens, UniProt P20309); assay: Equilibrium inhibition binding with [3H]-NMS, CHO cell membranes; conditions: [3H]-NMS 0.2 nM, mean ± SEM of 3-4 experiments, read-out: pKi hM3 (converted)
T3 construct: expressed in transfected cells; host or cells: CHO cells, stably transfected; membrane fractions
Experimental: as §1, §2, §3, §4

hM1 muscarinic receptor = target: T4, hM1 muscarinic receptor (Homo sapiens, UniProt P11229); assay: as above; conditions: [3H]-NMS 0.2 nM, mean ± SEM of 3-4 experiments, read-out: pKi hM1 (converted)
T4 construct: expressed in transfected cells; host or cells: CHO cells, stably transfected; membrane fractions
T4 sequence (P11229 1-460): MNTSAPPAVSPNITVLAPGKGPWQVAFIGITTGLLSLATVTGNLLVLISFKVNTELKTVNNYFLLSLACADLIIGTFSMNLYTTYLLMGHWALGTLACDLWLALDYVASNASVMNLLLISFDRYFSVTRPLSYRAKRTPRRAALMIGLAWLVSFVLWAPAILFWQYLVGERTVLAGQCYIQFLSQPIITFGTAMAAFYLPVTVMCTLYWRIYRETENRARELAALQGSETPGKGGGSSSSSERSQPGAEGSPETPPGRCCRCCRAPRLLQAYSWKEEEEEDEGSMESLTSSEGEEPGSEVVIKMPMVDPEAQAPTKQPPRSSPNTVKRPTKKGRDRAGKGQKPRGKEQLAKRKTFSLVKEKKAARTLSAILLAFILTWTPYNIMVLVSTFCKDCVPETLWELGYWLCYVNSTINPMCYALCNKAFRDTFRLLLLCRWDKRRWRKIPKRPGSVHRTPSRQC
Experimental: as §1, §2, §3, §4

hM2 muscarinic receptor = target: T5, hM2 muscarinic receptor (Homo sapiens, UniProt P08172); assay: as above; conditions: [3H]-NMS 0.2 nM, mean ± SEM of 3-4 experiments, read-out: pKi hM2 (converted)
T5 construct: expressed in transfected cells; host or cells: CHO cells, stably transfected; membrane fractions
T5 sequence (P08172 1-466): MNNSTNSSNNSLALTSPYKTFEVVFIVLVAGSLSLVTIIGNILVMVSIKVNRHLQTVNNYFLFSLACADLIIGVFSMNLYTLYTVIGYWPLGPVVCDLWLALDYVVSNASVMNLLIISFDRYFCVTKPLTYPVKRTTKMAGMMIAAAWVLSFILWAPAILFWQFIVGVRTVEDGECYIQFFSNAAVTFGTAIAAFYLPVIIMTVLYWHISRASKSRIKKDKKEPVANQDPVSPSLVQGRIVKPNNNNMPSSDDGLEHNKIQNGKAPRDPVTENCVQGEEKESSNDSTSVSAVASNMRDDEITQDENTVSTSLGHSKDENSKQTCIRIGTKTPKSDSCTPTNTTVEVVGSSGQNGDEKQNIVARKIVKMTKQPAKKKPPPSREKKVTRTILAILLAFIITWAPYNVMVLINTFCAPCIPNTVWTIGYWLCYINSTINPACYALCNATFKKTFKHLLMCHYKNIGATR
Experimental: as §1, §2, §3, §4

[2] = target: T6, [3H]-NMS-occupied muscarinic hM2 subtype (Homo sapiens, UniProt P08172); assay: One point kinetic (off-rate) assay of [3H]-NMS dissociation; assay type: binding
T6 construct: expressed in transfected cells; host or cells: CHO cells, stably transfected; membrane fractions
T6 sequence (P08172 1-466): T5 sequence (P08172 1-466)
Experimental: as §1
Off-rate assays were performed as described elsewhere to estimate the affinity of the ligands for the [^3H]-NMS-occupied receptor (log Kocc). Briefly, a high concentration of membranes (about 0.1 mg/mL) was incubated with a high concentration of [^3H]-NMS (2 nM) for 60 min at room temperature (mix membrane). Next, 100 µL aliquots were distributed into polypropylene tubes that were empty or in a final volume of 1 mL binding buffer with 1 µM atropine alone and in the presence of a range of concentrations of tested compound (1 nM–0.1 mM).
The effect on the radioligand dissociation of each tested ligand was determined at 0 min and at one time point, which was chosen to be ca 2.5 dissociation half-lives of [^3H]-NMS alone from each subtype receptors. Later (80 min for hM1, 20 min for hM2 and 70 min for hM5), the samples were filtered and counted as previously reported. Non specific binding was measured as previously reported.
as §4

T3 sequence (P20309 whole entry): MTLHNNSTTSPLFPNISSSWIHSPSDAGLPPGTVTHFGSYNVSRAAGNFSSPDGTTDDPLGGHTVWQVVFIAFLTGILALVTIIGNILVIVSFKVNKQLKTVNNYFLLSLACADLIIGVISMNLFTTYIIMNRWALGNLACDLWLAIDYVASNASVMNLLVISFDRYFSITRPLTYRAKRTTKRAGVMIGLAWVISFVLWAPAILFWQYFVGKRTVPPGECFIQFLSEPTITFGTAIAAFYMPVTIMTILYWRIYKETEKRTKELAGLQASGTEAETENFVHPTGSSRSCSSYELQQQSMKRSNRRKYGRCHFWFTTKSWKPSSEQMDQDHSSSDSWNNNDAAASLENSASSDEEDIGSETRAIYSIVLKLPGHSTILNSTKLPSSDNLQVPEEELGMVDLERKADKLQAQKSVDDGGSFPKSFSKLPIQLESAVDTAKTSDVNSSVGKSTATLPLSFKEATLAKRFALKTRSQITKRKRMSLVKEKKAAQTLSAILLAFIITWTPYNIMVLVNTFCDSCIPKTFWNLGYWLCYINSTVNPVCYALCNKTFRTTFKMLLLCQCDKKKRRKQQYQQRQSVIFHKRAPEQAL

**Q.** Which Ki (hM5 muscarinic receptor) does the source give for `CC(=O)N1CCN(c2ccc(OCC3COC(Cn4ccnc4)(c4ccc(Cl)cc4Cl)O3)cc2)CC1` (stereo not drawn) [ketoconazole] here?
**A.** 7.94 µM

**Q.** What about the Ki (hM4 muscarinic receptor) of the same molecule?
**A.** 4.57 µM

**Q.** Which logP [1] does the source give for `CS(=O)(=O)CCNCc1ccc(-c2ccc3ncnc(Nc4ccc(OCc5cccc(F)c5)c(Cl)c4)c3c2)o1` [lapatinib] here?
**A.** 5.2

**Q.** Which logP [1] does the source give for `CC(C)OC(=O)CCC/C=C\C[C@@H]1[C@@H](CC[C@@H](O)CCc2ccccc2)[C@H](O)C[C@@H]1O` [latanoprost] here?
**A.** 4.2

**Q.** With `C/C(=C\C(=O)OCCCCCCCCC(=O)O)C[C@@H]1OC[C@H](C[C@@H]2O[C@H]2[C@@H](C)[C@H](C)O)[C@@H](O)[C@H]1O` [mupirocin] as the molecule, how does the logP [1] read?
**A.** 2.2

**Q.** For `CCCCCCCCCCC[C@@H](C[C@@H]1OC(=O)[C@H]1CCCCCC)OC(=O)[C@H](CC(C)C)NC=O` [orlistat], which Ki (hM3 muscarinic receptor) is on record?
**A.** > 100 µM

**Q.** And the Ki (hM5 muscarinic receptor)?
**A.** > 100 µM

**Q.** And the Ki (hM1 muscarinic receptor)?
**A.** > 100 µM

**Q.** And the Ki (hM4 muscarinic receptor)?
**A.** > 100 µM

**Q.** What about the Ki (hM2 muscarinic receptor) of the same molecule?
**A.** > 100 µM

**Q.** What about the “Log Kocc hM2” value ([2]; Table 4, affinity estimate at [3H]-NMS-occupied receptor, one time point 20 min, mean ± SEM) of the same molecule?
**A.** completely inactive

**Q.** And the Kd ([2]; read-out: Log Kocc hM2 (converted))?
**A.** > 1000 µM

**Q.** What about the logP [1] of the same molecule?
**A.** 7.5

**Q.** With `C[n+]1ccc(-c2cc[n+](C)cc2)cc1` [paraquat] as the molecule, how does the pKi (hM5 muscarinic receptor) read?
**A.** 4.83

**Q.** What about the pKi (hM4 muscarinic receptor) of the same molecule?
**A.** < 4.00

**Q.** And the Ki (hM2 muscarinic receptor)?
**A.** 23.4 µM

**Q.** Which logP [1] does the source give for `CC1=C(C/C=C(\C)CCC[C@H](C)CCC[C@H](C)CCCC(C)C)C(=O)c2ccccc2C1=O` [phytonadione] here?
**A.** 9.3

**Q.** Which logP [1] does the source give for `O=c1[nH]c2ccccc2n1C1CCN(CCCC(c2ccc(F)cc2)c2ccc(F)cc2)CC1` [pimozide] here?
**A.** 6.3

**Q.** Which Ki (hM3 muscarinic receptor) does the source give for `OCc1cc(C(O)CNCCCCCCOCCCCc2ccccc2)ccc1O` (stereo not drawn) [salmeterol] here?
**A.** 12 µM

**Q.** And the Ki (hM5 muscarinic receptor)?
**A.** 12.6 µM

**Q.** What about the Ki (hM1 muscarinic receptor) of the same molecule?
**A.** 3.24 µM

**Q.** What about the Ki (hM4 muscarinic receptor) of the same molecule?
**A.** 9.77 µM

**Q.** And the logP [1]?
**A.** 3.8

**Q.** Which logP [1] does the source give for `C[C@H](Cc1cc2c(c(C(N)=O)c1)N(CCCO)CC2)NCCOc1ccccc1OCC(F)(F)F` [silodosin] here?
**A.** 3.0

**Q.** For `CC(C)N1CCN(c2ccc(OCC3COC(Cn4cncn4)(c4ccc(Cl)cc4Cl)O3)cc2)CC1` (stereo not drawn) [terconazole], which logP [1] is on record?
**A.** 4.5

**Q.** What does the source list for `CC(C)(C)c1ccc(C(O)CCCN2CCC(C(O)(c3ccccc3)c3ccccc3)CC2)cc1` (stereo not drawn) [terfenadine]?
**A.** Ki (hM4 muscarinic receptor): 11 µM; logP [1]: 5.9

**Q.** For `CC(C)OC(=O)CCC/C=C\C[C@@H]1[C@@H](/C=C/[C@@H](O)COc2cccc(C(F)(F)F)c2)[C@H](O)C[C@@H]1O` [travoprost], which logP [1] is on record?
**A.** 4.6

**Q.** For `N#Cc1ccc2[nH]cc(CCCCN3CCN(c4ccc5oc(C(N)=O)cc5c4)CC3)c2c1` [vilazodone], which logP [1] is on record?
**A.** 4.2

**Q.** For `CCOC(=O)CN[C@@H](C(=O)N1CC[C@H]1C(=O)NCc1ccc(/C(N)=N\O)cc1)C1CCCCC1` [ximelagatran], which logP [1] is on record?
**A.** 1.4
